Reference: patent US10745408B2, “Biologically active taxane analogs and methods of treatment by oral administration” (Tapestry Pharmaceuticals, Inc., priority 2007, dated 2020)
Entries after “also recorded” stand apart in the source; their conditions may differ.

How the values were obtained:
[1] = system: PC-3; test: MTS proliferation assay, prostate PC-3; type: cell-based; conditions: Homo sapiens
Experimental: (§1) MTS Proliferation Assay (Promega)
(§2) Day 1: Cells were plated in appropriate growth medium at 5×10^3 per well in 100 ul in 96 well tissue culture plates, Falcon, one for each drug to be tested. Col 1 was blank; it contained no cells, just medium. The plates were incubated overnight at 37° C., 5% CO2 to allow attachment.
(§3) Day 2: Added 120 ul growth medium in wells of 96-well “dilution plates” (one for each drug) and let sit in 37° C. incubator for about 1 hr.
(§4) Thawed DMSO drug stocks (usually at 10 mM). Each drug was diluted 6 ul into a tube with 3 ml growth medium, to 20 μM.
(§5) Aspirated medium from col 12 of a dilution plate; added 200-300 ul of 20 uM drug to wells of col 12. Made serial dilution down this 96-well plate: for a […] dilution pattern, moved 60 ul from col 12 to col 11, mixed 4-5 times (using 8 place multi-pipettor), moved 60 ul to col 10, etc. stopping at col 3.
(§6) Moved 100 ul of medium+drug from dilution plate to a cell plate, i.e. col 1 from drug plate (blank=no cells) to col 1 of cell plate, etc. up to col 12. Col 2 contained cells with no drug. […]
(§7) Day 4 or 5: Terminated the assay 48 to 72 hrs after drug addition. […] When the color turned dark in control wells (col 2), and was still light in col 12, the absorbance at 490 nm was read on a plate reader; the results were used to calculate IC50.

[2] = system: patients with advanced neoplasms; test: Phase 1 Study S-(1)-01 safety, tolerability and anti-neoplastic activity; type: in vivo, human
Text: Both trials have enrolled patients with advanced solid tumors, non-Hodgkin's lymphoma or Hodgkin's lymphoma that have recurred or progressed following at least standard therapy; patients with malignancies for which there is no standard therapy; patients who are not candidates for standard therapy; or patients who have chosen not to pursue standard therapy. […] Study S-(1)-01 is currently being conducted in the United States. […] Study S-(1)-02 is currently being conducted in the United States and in Israel.
Treatment cohorts consisted of 3 pts and were expanded to 6 pts in the face of dose-limiting toxicity (DLT); pts could remain on study until the development of progressive disease or an intolerable adverse event. DLT was defined as Gr 4 heme toxicity lasting 7 days; febrile neutropenia, Gr 3 thrombocytopenia with bleeding, Gr 3 elevation of transaminases lasting 7 days or any other Gr 3/4 toxicity other than nausea or vomiting.

[3] = system: MESSA/Dox (MDR+); test: MTS proliferation assay, uterine MESSA/Dox (MDR+); type: cell-based; conditions: Homo sapiens, MES-SA
Experimental: as §1, §2, §3, §4, §5, §6, §7

[4] = Central nervous system (CNS) safety study in rats; type: in vivo, male Sprague Dawley rats
Experimental: Toxicology. Central Nervous System (CNS) Safety Study in Rats:
This study was conducted at ClinTrials BioResearch (CTBR, Montreal, Quebec, Canada) as a GLP study.
All animals were observed twice daily for signs of ill health or reaction to treatment, except on day of arrival and necropsy. A Functional Observation Battery (FOB) assessment, along with grip strength, hind limb splay and body temperature measurements were performed for all animals once pre-dose and at approximately 15 minutes, 1 hour, 4 hours, 8 hours and 24 hours post-dose. After the last observation, all animals were euthanized without further examination.

[5] = S-(1) pharmacokinetics in mouse, plasma and brain levels after single IV dose; type: in vivo, CD-1 mice; conditions: single IV 20 mg/kg; for AUC(0-inf) / AUC(0-t) / Cmax / MRT: CD-1, mouse
Experimental: S-(1) Pharmacokinetic Data in Mouse Model:
The formulated drug was administered as a single IV bolus via tail vein injection.
Sample Collection timing: Terminal blood (plasma) and brain specimens were collected at 9 times post-dose, with 4 mice per sample time. Sample collection times: 5, 15 min., 2, 8, 24, 32, 48, 72 and 96 hr post-dose (4 mice per sample time).
Blood collection: A terminal blood sample was collected from each mouse via cardiac puncture. The whole blood was collected on wet ice, spun down immediately (at 4° C.), and plasma stored frozen at −20° C. until analysis. The anticoagulant used was K2EDTA. Brain Sample Collection: Whole brains were removed by dissection. Brains were collected on wet ice, weighed, and stored at −20° C.

[6] = system: HT29; test: MTS proliferation assay, colon HT29; type: cell-based; conditions: Homo sapiens, HT-29
Experimental: as §1, §2, §3, §4, §5, §6, §7

[7] = system: bovine microtubule protein; test: In vitro ED50 MT polymerization study (DAPI fluorescence tubulin assay); type: biochemical; conditions: tubulin polymerization, 37° C. 30 minutes, maximum assembly = 25 μM paclitaxel
Experimental: In Vitro ED50 MT Polymerization Study
In this tubulin binding assay, microtubule protein (MTP) is used as a substrate. The assay contains bovine tubulin plus microtubule associated proteins (MAP). MTP is polymerized into microtubules in the presence of DAPI (4′,6′-diamidino-2-phenylindole), a fluorescent compound. DAPI binds to tubulin; when microtubules are formed and there is an enhancement of fluorescence. The microtubule formation is measured as a function of time, using a fluorescence plate reader. […] The method used is based on the procedure published by Donna M. Barron, et al, “Fluorescence-based high-throughput assay for antimicrotuble drugs” Analytical Biochemistry, 315: 49-56, 2003, which is incorporated by reference in its entirety. The excitation wavelength, in that assay, was set at 370 nm and the emission wavelength was set at 450 nm for the DAPI experiments.
A Bio-Tek FL 600 microplate Fluorescence Reader was used to measure the relative level of fluorescence in the DAPI assay.
Assays were conducted in 96-well plates. Each well contained a total volume of 0.1 mL consisting of PEM buffer (0.1 M Pipes, 1 mM EGTA, 1 mM MgCl2, pH 6.9), 0.2 mg bovine microtubule protein, and 10 μg of DAPI. […] The final DMSO concentration was 4%. The plates were incubated at 37° C. for 30 minutes and read in a fluorescence plate reader using an excitation wavelength of 360 nm and an emission wavelength of 460 nm. Fluorescence values were corrected for the sample without compound.
Experiments were done twice in triplicate. Results were subsequently combined and fit to a non-linear regression program.

[8] = system: DU145; test: MTS proliferation assay, prostate DU145; type: cell-based; conditions: Homo sapiens, DU-145
Experimental: as §1, §2, §3, §4, §5, §6, §7

[9] = system: FADU; test: MTS proliferation assay, head/neck FADU; type: cell-based; conditions: Homo sapiens
Experimental: as §1, §2, §3, §4, §5, §6, §7

With `C=C[C@H]1O[C@H]2C[C@H]3OC[C@@]3(OC(C)=O)[C@H]3[C@H](OC(=O)c4ccccc4)[C@]4(C(C)(C)O)CC(OC(=O)[C@H](O)C(CC(C)C)NC(=O)OC(C)(C)C)C(C)=C4[C@H](OC(C)=O)[C@H](O1)[C@]23C` (stereo partly drawn) [S-(1)] the IC50 [1] was 0.03 nM, the Dose limiting toxicity ([2]; 185 mg/m^2, weekly x3, 28-day cycle) was “Grade 3 sensory neuropathy; also recorded: Grade 3 peripheral neuropathy” and the “Drug related adverse events” value ([2]; 7-185 mg/m^2 weekly x3) was “nausea, vomiting, diarrhea, fatigue, anorexia, rash, anemia and peripheral neuropathy”. For the same compound, the anti-neoplastic activity ([2]; patient with pancreatic cancer) was “Anti-neoplastic activity was seen”, the “dose that can be safely administered” value ([2]; weekly×3, heavily pre-treated patients) was “up to 185 mg/m^2” and the IC50 [3] was 44.8 nM. The “deaths or treatment-related clinical signs” value ([4]; single intravenous 6.25, 12.5 or 25 mg/kg) was “no deaths or treatment-related clinical signs”, the “biological effect on central nervous system (FOB, grip strength, hind limb splay, body temperature)” value ([4]; single intravenous 6.25, 12.5 or 25 mg/kg, 15 minutes, 1, 4, 8 and 24 hours post-dose) was “no biological effects” and the “no adverse effect level” value ([4]; single intravenous injection) was 25 mg/kg. The AUC(0-inf) ([5]; Brain) was 88700 ng·h/mL, the AUC(0-t) ([5]; Brain) was 65000 ng·h/mL and the Cmax ([5]; Brain) was 3730 ng/mL. For the same compound, the MRT ([5]; Brain) was 42.5 h, the AUC(0-inf) ([5]; Plasma) was 17000 ng·h/mL and the AUC(0-t) ([5]; Plasma) was 16900 ng·h/mL. The Cmax ([5]; Plasma) was 1550 ng/mL, the MRT ([5]; Plasma) was 17.6 h and the blood-brain barrier passage ([5]; mouse model) was “not impeded by the blood-brain barrier”. The IC50 [6] was 0.006 nM, the EC50 [7] was 1580 ± 460 nM and the IC50 [8] was 60 nM. For the same compound, the IC50 [9] was 21 nM.
